In patent US11390609B2, “Rho-associated protein kinase inhibitor, pharmaceutical composition comprising same, and preparation method and use thereof” (BEIJING TIDE PHARMACEUTICAL CO., LTD., priority 2017, dated 2022):

Target: ROCK1 (Homo sapiens (Human), UniProt Q13464)
Test: ROCK1 kinase IC50 assay (biological test method similar to the ROCK2 assay)
Type: biochemical
Protocol: The kinase IC50 was determined by a commercialized CISBIO kinase detection kit, HTRF KinEASE-STK S2 kit (62ST2PEC). ROCK2 (01-119) employed in the reaction was purchased from Carna Biosciences.
Before the assay, the following working solutions as needed were formulated with corresponding reagents according to the instruction of the kinase detection kit: 1×kinase buffer, 5×STK-52 substrate working solution (1.5 μM) and 5×ATP working solution (1.5 μM), 5×ROCK2 kinase working solution, 4×Streptavidin-XL665 working solution, and 4×STK-Ab-Cryptate 2 detection solution. Then the assay was performed according to the following procedure.
A solution of a compound at a concentration of 10000 nM was prepared with the 1×kinase buffer containing 2.5% DMSO. Gradient dilution of the solution of the compound was performed with the kinase buffer containing DMSO, so as to obtain solutions of a test compound at 9 different concentrations. In addition to wells of test compounds, a positive well (containing all the reagents except the compound) and a negative well (containing all the reagents except the test compound and kinase) were set. Except for the control wells (positive and negative wells), a solution of a test compound (4 μL) was added to each of the reaction wells, and a solution of 2.5% DMSO was added to the control wells. Then the substrate ([…], 2 μL. 5×STK-S2 substrate working solution) was added to each of the reaction wells. The 5×ROCK2 kinase working solution (2 μL, containing 1.4 ng ROCK2 kinase) was added to each of the reaction wells except for the negative well, the volume of which was made up with the 1×kinase buffer (2 μL). The 5×ATP working solution (2 μL) was added to each of the reaction wells, and the mixtures were incubated at room temperature for 2 hours. After the kinase reaction was complete, the 4×Streptavidin-XL665 working solution was added to each of the reaction wells, the solutions were mixed, followed by immediate addition of the 4×STK-Ab-Cryptate 2 detection solution (5 μL), and the mixtures were incubated at room temperature for 1 hour. The fluorescence signal was read on ENVISION (Perkinelmer) (excitation wavelength: 320 nm, and emission wavelength: 665 nm and 615 nm). The inhibitory rate in each well was calculated based on the fluorescence intensity value: ER (Emission Ratio)=(fluorescence intensity at 665 nm/fluorescence intensity at 615 nm); inhibitory rate=(ERpositive−ERtest compound)/(ERpositive−ERnegative)*100%. Curves were plotted and fitted to obtain the median inhibitory concentration (IC50) of each teat compound with the PRISM 5.0 software.
According to a biological test method similar to the above, the IC50 values of the compounds on ROCK1 were tested.

Chain of ROCK1 (Q13464 whole entry, species assumed): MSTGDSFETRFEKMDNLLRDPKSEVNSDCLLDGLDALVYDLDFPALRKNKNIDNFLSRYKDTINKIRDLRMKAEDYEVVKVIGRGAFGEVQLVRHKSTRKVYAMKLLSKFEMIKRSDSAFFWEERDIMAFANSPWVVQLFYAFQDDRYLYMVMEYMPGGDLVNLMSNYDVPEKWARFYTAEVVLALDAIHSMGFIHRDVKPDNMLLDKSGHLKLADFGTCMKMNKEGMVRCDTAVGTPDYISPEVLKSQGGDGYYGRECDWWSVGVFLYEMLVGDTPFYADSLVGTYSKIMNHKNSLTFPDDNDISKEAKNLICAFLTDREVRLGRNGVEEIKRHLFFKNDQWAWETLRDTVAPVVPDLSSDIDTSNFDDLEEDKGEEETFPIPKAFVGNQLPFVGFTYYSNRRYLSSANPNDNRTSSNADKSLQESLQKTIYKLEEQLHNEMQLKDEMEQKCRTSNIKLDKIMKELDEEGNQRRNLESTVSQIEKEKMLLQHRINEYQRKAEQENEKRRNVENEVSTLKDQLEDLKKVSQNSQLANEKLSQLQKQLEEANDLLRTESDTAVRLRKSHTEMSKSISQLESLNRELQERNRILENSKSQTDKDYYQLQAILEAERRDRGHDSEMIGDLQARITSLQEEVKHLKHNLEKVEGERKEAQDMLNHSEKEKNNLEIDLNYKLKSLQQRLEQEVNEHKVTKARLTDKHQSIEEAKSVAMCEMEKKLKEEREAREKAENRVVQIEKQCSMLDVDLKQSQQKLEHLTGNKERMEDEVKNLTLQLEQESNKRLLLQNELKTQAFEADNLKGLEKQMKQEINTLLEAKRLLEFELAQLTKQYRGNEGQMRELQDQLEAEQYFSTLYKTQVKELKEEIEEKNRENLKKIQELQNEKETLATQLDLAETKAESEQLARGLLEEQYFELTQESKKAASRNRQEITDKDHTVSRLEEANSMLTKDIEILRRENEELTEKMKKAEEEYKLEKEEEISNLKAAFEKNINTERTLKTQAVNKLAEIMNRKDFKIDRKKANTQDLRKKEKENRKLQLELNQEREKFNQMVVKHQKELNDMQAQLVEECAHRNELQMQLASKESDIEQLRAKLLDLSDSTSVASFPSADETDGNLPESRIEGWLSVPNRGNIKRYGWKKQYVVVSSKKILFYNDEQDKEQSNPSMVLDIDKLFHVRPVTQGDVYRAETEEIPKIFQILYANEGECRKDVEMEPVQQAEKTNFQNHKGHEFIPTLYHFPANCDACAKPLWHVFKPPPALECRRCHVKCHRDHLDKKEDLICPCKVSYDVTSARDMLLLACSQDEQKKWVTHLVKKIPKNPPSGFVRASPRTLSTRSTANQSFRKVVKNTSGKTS

IC50 [µM] | SMILES
> 10 | O=C(Nc1ccnnc1)c1cc2ccc(-c3ncc(F)c(Nc4ccc5[nH]ncc5c4)n3)cc2[nH]1 [TDI01213, 6-(4-((1H-indazol-5-yl)amino)-5-fluoropyrimidin-2-yl)-N-(pyridazin-4-yl)-1H-indole-2-carboxamide]
1.5 | CN1CCN(CC(=O)n2ccc3ccc(-c4nccc(Nc5ccc6[nH]ncc6c5)n4)cc32)CC1 [TDI01230, 1-(6-(4-((1H-indazol-5-yl)amino)pyrimidin-2-yl)-1H-indol-1-yl)-2-(4-methylpiperazin-1-yl)ethan-1-one]
> 10 | Cc1nc(-c2ccc3cc(C(=O)Nc4ccnnc4)[nH]c3c2)nc(Nc2ccc3[nH]ncc3c2)c1C [TDI01232, 6-(4-((1H-indazol-5-yl)amino)-5,6-dimethyl-pyrimidin-2-yl)-N-(pyridazin-4-yl)-1H-indole-2-carboxamide]
> 10 | Cc1cnc(-c2ccc3cc(C(=O)Nc4ccnnc4)[nH]c3c2)nc1Nc1ccc2[nH]ncc2c1 [TDI01250, 6-(4-((1H-indazol-5-yl)amino)-5-methyl-pyrimidin-2-yl)-N-(pyridazin-4-yl)-1H-indole-2-carboxamide]
> 10 | Cc1cc(Nc2ccc3[nH]ncc3c2)nc(-c2ccc3cc(C(=O)Nc4ccnnc4)[nH]c3c2)n1 [TDI01251, 6-(4-((1H-indazol-5-yl)amino)-6-methyl-pyrimidin-2-yl)-N-(pyridazin-4-yl)-1H-indole-2-carboxamide]
> 10 | Cc1c(Nc2ccnc(-c3ccc4cc(C(=O)Nc5ccnnc5)[nH]c4c3)n2)ccc2[nH]ncc12 [TDI01276, 6-(4-((4-methyl-1H-indazol-5-yl)amino)-pyrimidin-2-yl)-N-(pyridazin-4-yl)-1H-indole-2-carboxamide]
1.02 | CC(C)NC(=O)c1cc2ccc(-c3nccc(Nc4ccc(-c5cn[nH]c5)cc4)n3)cc2[nH]1 [TDI01280, 6-(4-((4-(1H-pyrazol-4-yl)phenyl)ami-no)pyrimidin-2-yl)-N-isopropyl-1H-indole-2-carboxamide]
> 10 | O=C(Nc1ccncc1Cl)c1cc2ccc(-c3nccc(Nc4ccc5[nH]ncc5c4)n3)cc2[nH]1 [TDI01290, 6-(4-((1H-indazol-5-yl)amino)-pyrimidin-2-yl)-N-(3-chloropyridin-4-yl)-1H-indole-2-carboxamide]
2.87 | CNC(=O)c1cc2ccc(-c3nccc(Nc4ccc(-c5cn[nH]c5)cc4)n3)cc2[nH]1 [TDI01296, 6-(4-((4-(1H-pyrazol-4-yl)phenyl)-amino)-pyrimidin-2-yl)-N-methyl-1H-indole-2-carboxamide]
1.84 | CC(C)NC(=O)N1Cc2ccc(-c3nccc(Nc4ccc5[nH]ncc5c4)n3)cc2C1 [TDI01312, 5-(4-((1H-indazol-5-yl)amino)pyrimidin-2-yl)-N-isopropylisoindoline-2-carboxamide]
2.15 | COc1ccc(NC(=O)c2cc3ccc(-c4nccc(Nc5ccc6[nH]ncc6c5)n4)cc3[nH]2)cn1 [TDI01315, 6-(4-((1H-indazol-5-yl)amino)-pyrimidin-2-yl)-N-(6-methoxy-pyridin-3-yl)-1H-indole-2-carboxamide]
0.274 | CN1CCC(N2CCCC(NC(=O)c3cc4ccc(-c5nccc(Nc6ccc7[nH]ncc7c6)n5)cc4[nH]3)C2)CC1 (stereo not drawn) [TDI01318, 6-(4-((1H-indazol-5-yl)amino)-pyrimidin-2-yl)-N-(1′-methyl-[1-4′-bipiperidin]-3-yl)-1H-indole-2-carboxamide]
1.74 | O=C(NC1CC1)c1cc2ccc(-c3nccc(Nc4ccc(-c5cn[nH]c5)cc4)n3)cc2[nH]1 [TDI01324, 6-(4-((4-(1H-pyrazol-4-yl)phenyl)-amino)-pyrimidin-2-yl)-N-cyclopropyl-1H-indole-2-carboxamide]
7.93 | O=C(c1cc2ccc(-c3nccc(Nc4ccc(-c5cn[nH]c5)cc4)n3)cc2[nH]1)N1CCC1 [TDI01330, (6-(4-((4-(1H-pyrazol-4-yl)phenyl)-amino)-pyrimidin-2-yl)-1H-indol-2-yl)(azetidin-1-yl)methanone]
> 10 | O=C(c1cc2ccc(-c3nccc(Nc4ccc(-c5cn[nH]c5)cc4)n3)cc2[nH]1)N1CCOCC1 [TDI01331, (6-(4-((4-(1H-pyrazol-4-yl)phenyl)-amino)-pyrimidin-2-yl)-1H-indol-2-yl)-(morpholino)-methanone]
6.27 | CCN(CC)C(=O)c1cc2ccc(-c3nccc(Nc4ccc(-c5cn[nH]c5)cc4)n3)cc2[nH]1 [TDI01332, 6-(4-((4-(1H-pyrazol-4-yl)phenyl)-amino)-pyrimidin-2-yl)-N,N-diethyl-1H-indole-2-carboxamide]
4.21 | CN(C(=O)c1cc2ccc(-c3nccc(Nc4ccc(-c5cn[nH]c5)cc4)n3)cc2[nH]1)C(CO)CO [TDI01344-2A, 6-(4-((4-(1H-pyrazol-4-yl)phenyl)-amino)-pyrimidin-2-yl)-N-(1,3-dihydroxy-propan-2-yl)-N-methyl-1H-indole-2-carboxamide]

The remaining lines, values behind:

SMILES | IC50 [µM]
Cn1c(C(=O)Nc2ccnnc2)cc2ccc(-c3nccc(Nc4ccc5[nH]ncc5c4)n3)cc21 [TDI01201, 6-(4-((1H-indazol-5-yl)amino)-pyrimidin-2-yl)-1-methyl-N-(pyridazin-4-yl)-1H-indole-2-carboxamide] | 6.92
O=C(Nc1ccnnc1)c1ccc2ccc(-c3nccc(Nc4ccc5[nH]ncc5c4)n3)cc2n1 [TDI01236, 7-(4-((1H-indazol-5-yl)ami-no)pyrimidin-2-yl)-N-(pyridazin-4-yl)quinoline-2-carboxamide] | > 10
O=C(Nc1ccnnc1)N1Cc2ccc(-c3nccc(Nc4ccc5[nH]ncc5c4)n3)cc2C1 [TDI01237, 5-(4-((1H-indazol-5-yl)amino)pyrimidin-2-yl)-N-(pyridazin-4-yl)isoindoline-2-carboxamide] | > 10
O=C(Nc1nncs1)c1cc2ccc(-c3nccc(Nc4ccc5[nH]ncc5c4)n3)cc2[nH]1 [TDI01247, 6-(4-((1H-indazol-5-yl)amino)pyrimidin-2-yl)-N-(1,3,4-thiadiazol-2-yl)-1H-indole-2-carboxamide] | > 10
CN(C)c1cnccc1NC(=O)c1cc2ccc(-c3nccc(Nc4ccc5[nH]ncc5c4)n3)cc2[nH]1 [TDI01289, 6-(4-((1H-indazol-5-yl)amino)-pyrimidin-2-yl)-N-(3-(dimethylamino)-pyridin-4-yl)-1H-indole-2-carboxamide] | 0.98
O=C(NC1CCOCC1)c1cc2ccc(-c3nccc(Nc4ccc5[nH]ncc5c4)n3)cc2[nH]1 [TDI01291, 6-(4-((1H-indazol-5-yl)amino)-pyrimidin-2-yl)-N-(tetrahydro-2H-pyran-4-yl)-1H-indole-2-carboxamide] | 0.573
CC(C)NC(=O)C1Cc2ccc(-c3nccc(Nc4ccc5[nH]ncc5c4)n3)cc2N1 (stereo not drawn) [TDI01292, 6-(4-((1H-indazol-5-yl)amino)-pyrimidin-2-yl)-N-isopropyl-indoline-2-carboxamide] | 4.84
CN(C)C(=O)c1cc2ccc(-c3nccc(Nc4ccc(-c5cn[nH]c5)cc4)n3)cc2[nH]1 [TDI01294, 6-(4-((4-(1H-pyrazol-4-yl)phenyl)-amino)-pyrimidin-2-yl)-N,N-dimethyl-1H-indole-2-carboxamide] | > 10
O=C(Nc1ccccn1)c1cc2ccc(-c3nccc(Nc4ccc5[nH]ncc5c4)n3)cc2[nH]1 [TDI01311, 6-(4-((1H-indazol-5-yl)amino)pyrimidin-2-yl)-N-(pyridin-2-yl)-1H-indole-2-carboxamide] | > 10
CN1CCC(n2cc(NC(=O)c3cc4ccc(-c5nccc(Nc6ccc7[nH]ncc7c6)n5)cc4[nH]3)cn2)CC1 [TDI01316, 6-(4-((1H-indazol-5-yl)amino)-pyrimidin-2-yl)-N-(1-(1-methyl-piperidin-4-yl)-1H-pyrazol-4-yl)-1H-indole-2-carboxamide] | 0.999
O=C(NC1CCOC1)c1cc2ccc(-c3nccc(Nc4ccc(-c5cn[nH]c5)cc4)n3)cc2[nH]1 (stereo not drawn) [TDI01337, 6-(4-((4-(1H-pyrazol-4-yl)phenyl)-amino)-pyrimidin-2-yl)-N-(tetrahydro-furan-3-yl)-1H-indole-2-carboxamide] | 2.76
O=C(NC1CCOCC1)c1cc2ccc(-c3nccc(Nc4ccc(-c5cn[nH]c5)cc4)n3)cc2[nH]1 [TDI01338, 6-(4-((4-(1H-pvrazol-4-yl)phenyl)-amino)-pyrimidin-2-yl)-N-(tetrahydro-2H-pyran-4-yl)-1H-indole-2-carboxamide] | 1.8
CN1CCN(C(=O)c2cc3ccc(-c4nccc(Nc5ccc(-c6cn[nH]c6)cc5)n4)cc3[nH]2)CC1 [TDI01343, (6-4(-((4-(1H-pyrazol-4-yl)phenyl)-amino)-pyrimidin-2-yl)-1H-indol-2-yl)(4-methyl-piperazin-1-yl)methanone] | 7.11
